Source: patent US9938269B2, “Inhibitor compounds of phosphodiesterase type 10A” (ABBVIE INC., priority 2011, dated 2018)
pIC50: −log10 of the molar value. Counter-ions that a name gives are not always drawn.

Experiments:
PDE10A (human) = target: T1, PDE10A (human) (Homo sapiens, UniProt Q9Y233); experiment: Measurement of PDE activity (HTRF cAMP kit), human PDE10A; assay type: biochemical; conditions: PDE enzymatic reaction, substrate 20 nM for PDE10, 60 minutes at 29 C
T1 construct: purchased BPS Bioscience
How it was run: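 HTRF detection of cAMP left after hydrolysis, expressed as percent of uninhibited control to derive IC50. Reaction: serially diluted inhibitor mixed with recombinant enzyme, started with 20 nM cAMP, 60 min at 29 °C in Tris-HCl pH 7.5 buffer containing MgCl2 and BSA.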

[1] = Determination of the microsomal half-life, rat liver microsomes; conditions: rat, liver microsomes, pH 7.4
[2] = Determination of the microsomal half-life, human liver microsomes; conditions: human, liver microsomes, pH 7.4
Protocol: The test substances were incubated in a concentration of 0.5 μM as follows:
0.5 μM test substance are preincubated together with liver microsomes from different species (from rat, human or other species) (0.25 mg of microsomal protein/10 in 0.05 M potassium phosphate buffer of pH 7.4 in microtiter plates at 37° C. for 5 min. The reaction is started by adding NADPH (1 mg/mL). After 0, 5, 10, 15, 20 and 30 min., 50 μl aliquots are removed, and the reaction is immediately stopped and cooled with the same volume of acetonitrile. The samples are frozen until analyzed. The remaining concentration of undegraded test substance is determined by MSMS. The half-life (T½) is determined from the gradient of the signal of test substance/unit time plot, it being possible to calculate the half-life of the test substance, assuming first order kinetics, from the decrease in the concentration of the compound with time. The microsomal clearance (mCl) is calculated from mCl=ln 2/T½/(content of microsomal protein in mg/ml)×1000 [ml/min/mg]

T1 sequence (Q9Y233 whole entry): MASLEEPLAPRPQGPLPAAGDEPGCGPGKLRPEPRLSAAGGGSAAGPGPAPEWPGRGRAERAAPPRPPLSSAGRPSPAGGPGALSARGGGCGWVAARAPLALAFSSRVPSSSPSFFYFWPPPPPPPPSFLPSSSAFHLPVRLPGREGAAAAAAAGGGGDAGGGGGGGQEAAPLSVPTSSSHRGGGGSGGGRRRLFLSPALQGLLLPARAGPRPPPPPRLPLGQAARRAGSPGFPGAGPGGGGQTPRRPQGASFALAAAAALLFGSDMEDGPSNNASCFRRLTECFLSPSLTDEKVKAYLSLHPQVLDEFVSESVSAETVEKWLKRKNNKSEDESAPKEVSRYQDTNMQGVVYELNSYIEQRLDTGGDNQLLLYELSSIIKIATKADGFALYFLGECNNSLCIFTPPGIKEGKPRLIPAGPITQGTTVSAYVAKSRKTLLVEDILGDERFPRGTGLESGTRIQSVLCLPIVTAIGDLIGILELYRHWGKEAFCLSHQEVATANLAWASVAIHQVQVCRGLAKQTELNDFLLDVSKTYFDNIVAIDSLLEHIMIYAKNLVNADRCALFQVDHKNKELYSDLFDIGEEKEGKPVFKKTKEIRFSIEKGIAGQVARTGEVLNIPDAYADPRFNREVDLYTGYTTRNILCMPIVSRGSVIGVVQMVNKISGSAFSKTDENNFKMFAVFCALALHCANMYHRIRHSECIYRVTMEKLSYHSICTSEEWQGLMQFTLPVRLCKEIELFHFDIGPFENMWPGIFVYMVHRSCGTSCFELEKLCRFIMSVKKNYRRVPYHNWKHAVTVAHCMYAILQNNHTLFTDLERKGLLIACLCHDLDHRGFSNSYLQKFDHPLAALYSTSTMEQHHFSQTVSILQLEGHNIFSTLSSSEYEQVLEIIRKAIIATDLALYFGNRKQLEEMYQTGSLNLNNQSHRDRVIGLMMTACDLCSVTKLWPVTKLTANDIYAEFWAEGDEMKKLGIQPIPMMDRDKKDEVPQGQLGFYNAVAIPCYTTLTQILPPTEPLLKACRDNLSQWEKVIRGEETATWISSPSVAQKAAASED

Compound	pIC50 (PDE10A (human))	microsomal CLint at 0.5 μM [1]	microsomal CLint at 0.5 μM [2]
O=C1c2c(N3CCOCC3)ccnc2CN1CCc1ccc(Cl)cn1 [compound 505, 6-[2-(5-Chloro-2-pyridyl)ethyl]-4-morpholino-7H-pyrrolo[3,4-b]pyridin-5-one]	6.30 to 6.70	< 100 µL/min/mg	< 100 µL/min/mg
O=C1c2c(-c3ccncc3)ccnc2CN1CCc1nc2ccccc2o1 [compound 418, 6-[2-(1,3-Benzoxazol-2-yl)ethyl]-4-(4-pyridyl)-7H-pyrrolo[3,4-b]pyridin-5-one]	6.30 to 6.70	< 100 µL/min/mg	< 100 µL/min/mg
[2H]C1([2H])OC([2H])([2H])C([2H])([2H])N(c2ccnc3c2C(=O)N(CCc2ccc4ccccc4n2)C3)C1([2H])[2H] [compound 485, 4-(2,2,3,3,5,5,6,6-Octadeuteriomorpholin-4-yl)-6-[2-(2-quinolyl)ethyl]-7H-pyrrolo[3,4-b]pyridin-5-one]	> 7.00	100 to 220 µL/min/mg	100 to 220 µL/min/mg
COc1ccc(-c2ccncc2)c2c1C(=O)N(CCc1cn3ccccc3n1)C2 [compound 448, 2-(2-Imidazo[1,2-a]pyridin-2-yl-ethyl)-7-methoxy-4-pyridin-4-yl-2,3-dihydro-isoindol-1-one trifluoroacetate]	> 7.00	< 100 µL/min/mg	< 100 µL/min/mg
O=C1c2c(NC3COC3)ccnc2CN1CCc1nc2ccccc2s1 [Example 376, 6-(2-Benzothiazol-2-yl-ethyl)-4-(oxetan-3-ylamino)-6,7-dihydro-pyrrolo[3,4-b]pyridin-5-one]	> 7.00	< 100 µL/min/mg	< 100 µL/min/mg
O=C1c2c(-c3ccncc3)ccnc2CN1CCc1ccc2ccccc2n1 [Example 3, 4-Pyridin-4-yl-6-(2-quinolin-2-yl-ethyl)-6,7-dihydro-pyrrolo[3,4-b]pyridin-5-one]	> 7.00	100 to 220 µL/min/mg	< 100 µL/min/mg
CN(C)CCCn1c(CCN2Cc3cccc(-c4ccncc4)c3C2=O)nc2ccccc21 [Example 294, 2-{2-[1-(3-Dimethylamino-propyl)-1H-benzoimidazol-2-yl]-ethyl}-7-pyridin-4-yl-2,3-dihydro-isoindol-1-one trifluoroacetate]	6.30 to 6.70	< 100 µL/min/mg	100 to 220 µL/min/mg
O=C1c2c(-c3cncnc3)ccc(F)c2CN1CCc1cn2ccccc2n1 [Example 381, 4-Fluoro-2-(2-imidazo[1,2-a]pyridin-2-yl-ethyl)-7-pyrimidin-5-yl-2,3-dihydro-isoindol-1-one]	> 7.00	< 100 µL/min/mg	100 to 220 µL/min/mg
Cc1ccc2c(c1)nc(CCN1Cc3nccc(-c4ccnn4C)c3C1=O)n2C [compound 540, 6-[2-(1,5-Dimethylbenzimidazol-2-yl)ethyl]-4-(2-methylpyrazol-3-yl)-7H-pyrrolo[3,4-b]pyridin-5-one]	> 7.00	< 100 µL/min/mg	< 100 µL/min/mg
O=C1c2c(cccc2N2CCOCC2)CN1CCc1ccc2ccccc2n1 [Example 99, 7-Morpholin-4-yl-2-(2-quinolin-2-yl-ethyl)-2,3-dihydro-isoindol-1-one]	> 7.00	< 100 µL/min/mg	100 to 220 µL/min/mg
Cc1cnc(CCN2Cc3nccc(N4CCOCC4)c3C2=O)c(C)c1 [compound 489, 6-[2-(3,5-Dimethyl-2-pyridyl)ethyl]-4-morpholino-7H-pyrrolo[3,4-b]pyridin-5-one]	> 7.00	100 to 220 µL/min/mg	100 to 220 µL/min/mg
Cc1cccnc1CCN1Cc2nccc(-c3ccncc3)c2C1=O [compound 409, 6-[2-(3-Methyl-2-pyridyl)ethyl]-4-(4-pyridyl)-7H-pyrrolo[3,4-b]pyridin-5-one]	6.30 to 6.70	< 100 µL/min/mg	< 100 µL/min/mg
O=C1c2c(-c3cc[nH]n3)ccnc2CN1CCc1nc2ccccc2s1 [compound 429, 6-[2-(1,3-Benzothiazol-2-yl)ethyl]-4-(1H-pyrazol-3-yl)-7H-pyrrolo[3,4-b]pyridin-5-one]	> 7.00	< 100 µL/min/mg	< 100 µL/min/mg

More lines, now with the values ahead:

pIC50 (PDE10A (human))	microsomal CLint at 0.5 μM [1]	microsomal CLint at 0.5 μM [2]	Compound
> 7.00	100 to 220 µL/min/mg	> 220 µL/min/mg	COc1ccc(-c2cccnc2)c2c1CN(CCc1ccc3ccccc3n1)C2=O [Example 185, 4-Methoxy-7-pyridin-3-yl-2-(2-quinolin-2-yl-ethyl)-2,3-dihydro-isoindol-1-one trifluoroacetate]
6.70 to 7.00	< 100 µL/min/mg	< 100 µL/min/mg	O=C1c2c(-c3cncnc3)ccnc2CN1CCc1nc2ccccc2s1 [compound 544, 6-[2-(1,3-Benzothiazol-2-yl)ethyl]-4-pyrimidin-5-yl-7H-pyrrolo[3,4-b]pyridin-5-one]
6.70 to 7.00	< 100 µL/min/mg	< 100 µL/min/mg	Cn1nccc1-c1ccnc2c1C(=O)N(CCc1cn3ccccc3n1)C2 [Example 255, 6-(2-Imidazo[1,2-a]pyridin-2-yl-ethyl)-4-(2-methyl-2H-pyrazol-3-yl)-6,7-dihydro-pyrrolo[3,4-b]pyridin-5-one]
> 7.00	100 to 220 µL/min/mg	100 to 220 µL/min/mg	O=C1c2c(OC3COC3)ccnc2CN1CCc1ccc2ccccc2n1 [compound 447, 4-(oxetan-3-yloxy)-6-[2-(2-quinolyl)ethyl]-7H-pyrrolo[3,4-b]pyridin-5-one]
> 7.00	< 100 µL/min/mg	< 100 µL/min/mg	Cn1nccc1-c1ccnc2c1C(=O)N(CCc1ccc3ccccc3n1)C2 [Example 162, 4-(2-Methyl-2H-pyrazol-3-yl)-6-(2-quinolin-2-yl-ethyl)-6,7-dihydro-pyrrolo[3,4-b]pyridin-5-one hydrochloride]
> 7.00	< 100 µL/min/mg	< 100 µL/min/mg	O=C1c2c(-c3ccoc3)ccnc2CN1CCc1cn2ccccc2n1 [compound 414, 4-Furan-3-yl-6-(2-imidazo[1,2-a]pyridin-2-yl-ethyl)-6,7-dihydro-pyrrolo[3,4-b]pyridin-5-one]
6.70 to 7.00	< 100 µL/min/mg	< 100 µL/min/mg	Cn1nccc1-c1cccc2c1C(=O)N(CCc1cn3ccccc3n1)C2 [Example 239, 2-(2-Imidazo[1,2-a]pyridin-2-yl-ethyl)-7-(2-methyl-2H-pyrazol-3-yl)-2,3-dihydro-isoindol-1-one]
6.70 to 7.00	< 100 µL/min/mg	< 100 µL/min/mg	Cn1nccc1-c1ccnc2c1C(=O)N(CCc1nc3ccccc3s1)C2 [compound 432, 6-[2-(1,3-Benzothiazol-2-yl)ethyl]-4-(2-methylpyrazol-3-yl)-7H-pyrrolo[3,4-b]pyridin-5-one trifluoroacetate]
> 7.00	< 100 µL/min/mg	< 100 µL/min/mg	O=C1c2c(-c3ccncc3)ccnc2CN1CCc1cn2cc(F)ccc2n1 [compound 494, 6-[2-(6-Fluoroimidazo[1,2-a]pyridin-2-yl)ethyl]-4-(4-pyridyl)-7H-pyrrolo[3,4-b]pyridin-5-one trifluoroacetate]
> 7.00	100 to 220 µL/min/mg	< 100 µL/min/mg	COc1ccc(-c2ccncc2)c2c1C(=O)N(CCc1nc3ccccc3s1)C2 [compound 396, 2-[2-(1,3-Benzothiazol-2-yl)ethyl]-7-methoxy-4-(4-pyridyl)isoindolin-1-one]
6.70 to 7.00	> 220 µL/min/mg	100 to 220 µL/min/mg	Cn1ccc(-c2ccnc3c2C(=O)N(CCc2ccc4ccccc4n2)C3)c1 [Example 337, 4-(1-Methyl-1H-pyrrol-3-yl)-6-(2-quinolin-2-yl-ethyl)-6,7-dihydro-pyrrolo[3,4-b]pyridin-5-one]
> 7.00	< 100 µL/min/mg	< 100 µL/min/mg	Cc1c(-c2ccnc3c2C(=O)N(CCc2ccc4ccccc4n2)C3)cnn1C [Example 332, 4-(1,5-Dimethyl-1H-pyrazol-4-yl)-6-(2-quinolin-2-yl-ethyl)-6,7-dihydro-pyrrolo[3,4-b]pyridin-5-one]
> 7.00	100 to 220 µL/min/mg	> 220 µL/min/mg	O=C1c2c(cccc2-c2ccncc2)CN1CCc1ccc2sccc2n1 [Example 19, 7-Pyridin-4-yl-2-(2-thieno[3,2-b]pyridin-5-yl-ethyl)-2,3-dihydro-isoindol-1-one]
> 7.00	< 100 µL/min/mg	100 to 220 µL/min/mg	Cc1ccc2c(c1)nc(CCN1Cc3cccc(N4CCOCC4)c3C1=O)n2C [Example 306, 2-[2-(1,5-Dimethyl-1H-benzoimidazol-2-yl)-ethyl]-7-morpholin-4-yl-2,3-dihydro-isoindol-1-one trifluoroacetate]
> 7.00	100 to 220 µL/min/mg	< 100 µL/min/mg	O=C1c2nccc(-c3ccncc3)c2CN1CCc1ccc2ccccc2n1 [compound 451, 4-Pyridin-4-yl-6-(2-quinolin-2-yl-ethyl)-5,6-dihydro-pyrrolo[3,4-b]pyridin-7-one]
6.30 to 6.70	> 220 µL/min/mg	100 to 220 µL/min/mg	Cc1noc(C)c1-c1ccnc2c1C(=O)N(CCc1ccc3ccccc3n1)C2 [Example 335, 4-(3,5-Dimethyl-isoxazol-4-yl)-6-(2-quinolin-2-yl-ethyl)-6,7-dihydro-pyrrolo[3,4-b]pyridin-5-one]
> 7.00	100 to 220 µL/min/mg	< 100 µL/min/mg	COc1ccc(-c2cccnc2)c2c1C(=O)N(CCc1cn3ccccc3n1)C2 [compound 456, 2-(2-Imidazo[1,2-a]pyridin-2-yl-ethyl)-7-methoxy-4-pyridin-3-yl-2,3-dihydro-isoindol-1-one trifluoroacetate]
